Structures can show the parent of a compound that is named as a salt.
Legend:
[1] = system: iNOS; assay: Real time RT-PCR of graft muscularis after SITx, iNOS; format: in vivo, LEW rats
Description: (§1) Small Intestinal Transplantation. Orthotopic small intestinal transplantation (SITx) was performed in syngeneic Lewis rats. SITx with caval drainage was performed using a previously described procedure (Murase et al., in Handbook of Animal Models in Transplantation Research, Cramer et al., Eds. CRC Press, Boca Raton, Fla., pp. 203-213 (1994)). […] The graft was perfused via the aortic segment with 5 ml chilled Ringer's lactate solution, and the intestinal lumen was irrigated with 20 ml of cold saline solution containing 0.5% neomycin-sulfate (Sigma, St. Louis, Mo.). […]
(§2) SYBR green real time RT-PCR. The effects of administration of biliverdin on transplant-induced pro-inflammatory and anti-inflammatory gene expression were assessed in muscularis extracts by RT-PCR Biliverdin ([…], i.p.) was administered to both the donor and recipient three hours preoperatively. […] Equal aliquots (5 μg) of total RNA from each sample were quantified by spectrophotometry (wavelength […]) and aliquoted at a concentration of 40 ng/μl. Peak mRNA expression was quantified in duplicate by SYBR Green two-step, real-time RT-PCR. […] Real-time PCR data were plotted as the ΔRn fluorescence signal versus the cycle number. […] Quantification of mRNA expression was normalized to GAPDH and calculated relative to control using the comparative CT method (Schmittgen et al., J. Biochem. Biophys. Methods 46(1-2):69-8, 2000). […]

[2] = system: MPO positive cells in intestinal muscularis; assay: Leukocyte recruitment into intestinal muscularis (MPO histochemistry); format: in vivo, LEW rats
Description: Small Intestinal Transplantation. Orthotopic small intestinal transplantation (SITx) was performed in syngeneic Lewis rats. SITx with caval drainage was performed using a previously described procedure (Murase et al., in Handbook of Animal Models in Transplantation Research, Cramer et al., Eds. CRC Press, Boca Raton, Fla., pp. 203-213 (1994)). […] The graft was perfused via the aortic segment with 5 ml chilled Ringer's lactate solution, and the intestinal lumen was irrigated with 20 ml of cold saline solution containing 0.5% neomycin-sulfate (Sigma, St. Louis, Mo.). End-to-side anastomoses between the graft aorta and the recipient infrarenal aorta, and between the graft portal vein and recipient vena cava, were performed with 10-0 Novafil™ suture. The cold ischemic time was 1 hour. The entire recipient intestine was removed and the enteric continuity was restored by proximal and distal end-to-end intestinal anastomoses. Recipient animals were given 20 mg/day prophylactic cefamandole nafate for 3 postoperative days. Transplanted recipients were given water 3 hours after surgery, and were fed 24 hours after surgery.
Leukocyte Recruitment. […] Myeloperoxidase (MPO) activity, as determined by Hanker-Yates histochemistry, was used to quantify the polymorphonuclear neutrophil (PMN) infiltrate in tissues from control and transplanted animals, with and without BV treatment. […]

[3] = system: IL-10; assay: Endotoxic shock (LPS) model, serum IL-10; format: in vivo, Sprague-Dawley rats; details: biliverdin i.p. […] 17 h and 1 h prior to and 8 h after LPS
Description: Treatment Protocol. Endotoxin (lipopolysaccharide/LPS; Sigma; E. coli serotype 0128:B7; 3 mg/kg, i.v.) was administered to male Sprague-Dawley, resulting in an acute non-lethal inflammation. In rats, a sublethal dose of LPS results in a moderate lung inflammation characterized by neutrophil accumulation and protein accumulation in the airspace, both markers of lung inflammation. The pro-inflammatory cytokine TNF-alpha increases very rapidly in the serum, peaking by 60-90 minutes. This is followed by increases in IL-10, a prototypical anti-inflammatory cytokine that peaks 8-12 hr later.
Administration of Biliverdin. Biliverdin (Frontier Scientific: prepared in PBS following solubilization in NaOH) was administered i.p. at […] 17 hours prior to, one hour prior to, and eight hours after LPS administration.
Bronchoalveolar Lavage. A bronchoalveolar lavage (BAL) was performed 24 hours after LPS administration. Serum cytokines were measured using commercially available ELISA kits (R&D Systems Inc.) per the manufacturer's instructions. Total protein was determined via a standard Bradford assay based on a standard curve. […] Total cell count was determined as well as differential analysis of cell type and morphology via Diff-Quik® Fixative (American Scientific Products) staining of a sample of the lavagate.

[4] = system: IL-10; assay: Real time RT-PCR of graft muscularis after SITx, IL-10; format: in vivo, LEW rats; details: BV treatment, 4 hours
Description: as §1, §2

SMILES: C=CC1=C(C)/C(=C/C2=NC(=C\c3[nH]c(/C=C4\NC(=O)C(C)=C4C=C)c(C)c3CCC(=O)O)/C(CCC(=O)O)=C2C)NC1=O [biliverdin, biliverdin dihydrochloride]
- reduction of mean relative iNOS mRNA expression ([1]; BV treated rats, graft muscularis): approximately 50%
- mRNA expression of iNOS or COX-2 ([1]; BV treatment of unoperated control animals): did not alter
- mean number of MPO positive cells ([2]; 24 hours after SITx): significantly decreased
- MPO positive cells ([2]; BV injection into normal animals): 3.9±1.3 cells per ×200 field
- IL-10 level [3]: augmentation
- upregulation of IL-10 mRNA caused by transplantation [4]: did not significantly change
